Source: patent US5747530A, “Aromatic dibenzofuran compounds and pharmaceutical/cosmetic compositions comprised thereof” (Centre International de Recherches Dermatologiques Galderma, priority 1994, dated 1998)

Experiments:
RAR α = target: T1, RAR α (Homo sapiens, UniProt P10276); assay: Affinity for RAR α receptor (Kd); format: binding; conditions: read-out: Affinities for receptors Kd, RAR α
T1 sequence (P10276 1-462): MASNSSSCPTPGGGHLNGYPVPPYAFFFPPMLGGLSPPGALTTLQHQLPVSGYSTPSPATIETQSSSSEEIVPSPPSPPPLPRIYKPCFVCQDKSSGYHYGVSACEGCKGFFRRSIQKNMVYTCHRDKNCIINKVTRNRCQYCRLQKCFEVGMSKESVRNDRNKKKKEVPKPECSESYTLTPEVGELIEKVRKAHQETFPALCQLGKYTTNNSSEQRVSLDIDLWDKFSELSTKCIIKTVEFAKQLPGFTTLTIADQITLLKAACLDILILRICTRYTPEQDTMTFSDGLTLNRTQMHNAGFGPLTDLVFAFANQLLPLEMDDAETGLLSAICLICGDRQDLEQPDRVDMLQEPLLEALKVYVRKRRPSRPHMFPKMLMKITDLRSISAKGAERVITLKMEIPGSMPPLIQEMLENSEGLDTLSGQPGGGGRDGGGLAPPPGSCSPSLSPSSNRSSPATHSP
Description: (§1) Biological activities of certain compounds described and exemplified above:
(§2) ^(a) The affinites for the RARs were determined under the conditions
(§3) described in B. Martin et al, "Selective Synthetic Ligands for Human
(§4) Nuclear Retinoic Acid Receptors," Skin Pharmacol., 5, 57-65 (1992).

RAR β = target: T2, RAR β (Homo sapiens, UniProt P10826); assay: Affinity for RAR β receptor (Kd); format: binding; conditions: read-out: Affinities for receptors Kd, RAR β
T2 sequence (P10826 1-448 isoform P10826-2): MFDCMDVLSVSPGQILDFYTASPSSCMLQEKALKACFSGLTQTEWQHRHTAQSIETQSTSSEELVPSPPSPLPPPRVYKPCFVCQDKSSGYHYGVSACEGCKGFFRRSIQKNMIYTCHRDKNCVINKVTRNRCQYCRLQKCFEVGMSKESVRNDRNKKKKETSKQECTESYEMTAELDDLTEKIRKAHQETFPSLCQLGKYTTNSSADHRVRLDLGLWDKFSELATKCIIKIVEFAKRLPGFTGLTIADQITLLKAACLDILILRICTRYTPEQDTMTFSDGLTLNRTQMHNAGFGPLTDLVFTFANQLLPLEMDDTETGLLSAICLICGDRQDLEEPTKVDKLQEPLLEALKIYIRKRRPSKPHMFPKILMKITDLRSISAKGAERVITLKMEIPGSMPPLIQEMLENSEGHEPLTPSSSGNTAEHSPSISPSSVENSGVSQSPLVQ
Description: as §1, §2, §3, §4

RAR γ = target: T3, RAR γ (Homo sapiens, UniProt P13631); assay: Affinity for RAR γ receptor (Kd); format: binding; conditions: read-out: Affinities for receptors Kd, RAR γ
T3 sequence (P13631 1-454): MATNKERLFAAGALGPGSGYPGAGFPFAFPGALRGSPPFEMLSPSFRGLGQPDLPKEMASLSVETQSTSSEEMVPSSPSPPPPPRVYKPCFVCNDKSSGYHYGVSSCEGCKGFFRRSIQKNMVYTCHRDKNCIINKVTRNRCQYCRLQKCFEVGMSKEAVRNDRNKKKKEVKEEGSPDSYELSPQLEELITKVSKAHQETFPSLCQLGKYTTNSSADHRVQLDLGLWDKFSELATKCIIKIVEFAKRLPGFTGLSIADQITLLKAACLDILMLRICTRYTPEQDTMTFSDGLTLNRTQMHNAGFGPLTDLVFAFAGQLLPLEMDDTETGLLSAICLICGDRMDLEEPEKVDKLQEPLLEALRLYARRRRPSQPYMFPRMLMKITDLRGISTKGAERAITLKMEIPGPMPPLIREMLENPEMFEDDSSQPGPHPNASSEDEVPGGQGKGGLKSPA
Description: as §1, §2, §3, §4

F9 cells [1] = assay: Antagonist activity with respect to the differentiation of F9 cells; format: cell-based; conditions: Mus musculus; coincubation with reference agonist (F9 AC50 = 4nM)
Description: Their activities may also be measured in tests of cellular transactivation using previously transfected recombinant RAR or RXR receptors (B. A. Bernard et al, Biochemical and Biophysical Research Communications, vol. 186, pp. 977-983 (1992)); M. F. Boehm et al, Journal of Medicinal Chemistry, p37, pp. 408-414 (1994)).
^(b) The antagonist activity was determined by coincubating a
[N(4-carboxybenzyl)-5,6,7,8-tetrahydro-5,5,8,8-tetramethyl-2-naphthylamin
(F9 AC50 = 4nM)] and different concentrations of the test retinoid.
These experiments were carried out under conditions for the determination
of activity with respect to the differentiation of F9 cells according to
the technique described in M. Darmon, M. Rocher, M. T. Cavey, B. Martin,
T. Rabilloud, C. Delescluse and B. Shroot, "Biological activity of
retinoids correlates with affinity for nuclear receptors, but not for
cytosolic binding protein," Skin Pharmacol., 1, 161-175 (1988).

F9 cells [2] = assay: Agonist activity, differentiation of F9 cells; format: cell-based; conditions: Mus musculus, reference agonist

Structure (SMILES) | Kd (RAR α) | Kd (RAR β) | Kd (RAR γ) | IC50 (F9 cells [1]) | AC50 (F9 cells [2])
CC1(C)CCC(C)(C)c2cc(NCc3ccc(C(=O)O)cc3)ccc21 [N(4-carboxybenzyl)-5,6,7,8-tetrahydro-5,5,8,8-tetramethyl-2-naphthylamin] | – | – | – | – | 4 nM
CC12CCC(C1)C1(C)Oc3ccc(C(O)COc4ccc(C(=O)O)cc4)cc3C21C (stereo not drawn) [Example 13, 4-[2-(1,2,3,4-tetrahydro-1,4a,9b-trimethyl-1,4-methanodibenzofuran-8-yl)-2-hydroxyethoxy]benzoic acid] | > 3200 nM | 230 nM | 40 nM | 36 nM | –
CC12CCC(C1)C1(C)Oc3ccc(CCOc4ccc(C(=O)O)c(O)c4)cc3C21C (stereo not drawn) [Example 17, 4-[2-(1,2,3,4-tetrahydro-1,4a,9b-trimethyl-1,4-methanodibenzofuran-8-yl)ethoxy]-2-hydroxybenzoic acid] | > 10000 nM | 315 nM | 2250 nM | 270 nM | –

The next lines start with results.

Kd (RAR α) | Kd (RAR β) | Kd (RAR γ) | IC50 (F9 cells [1]) | Structure (SMILES) | AC50 (F9 cells [2])
220 nM | 53 nM | 27 nM | 19 nM | CC12CCC(C1)C1(C)Oc3ccc(C(=O)/C=C/c4ccc(C(=O)O)cc4)cc3C21C (single isomer, unassigned) [Example 23, 4-[(E)-3-(1,2,3,4-Tetrahydro-1,4a,9b-trimethyl-1,4-methanodibenzofuran-8-yl)-3-oxo-1-propenyl]benzoic acid] | –
3200 nM | 745 nM | 481 nM | 40 nM | CC12CCC(C1)C1(C)Oc3ccc(C(=O)COc4ccc(C(=O)O)cc4)cc3C21C (stereo not drawn) [Example 12, 4-[2-(1,2,3,4-tetrahydro-1,4a,9b-trimethyl-1,4-methanodibenzofuran-8-yl)-2-oxoethoxy]benzoic acid] | –
2500 nM | 114 nM | 150 nM | 55 nM | CC12CCC(C1)C1(C)Oc3ccc(C(=O)COc4ccc(C(=O)O)c(O)c4)cc3C21C (stereo not drawn) [Example 15, 4-[2-(1,2,3,4-tetrahydro-1,4a,9b-trimethyl-1,4-methanodibenzofuran-8-yl)-2-oxoethoxy]-2-hydroxybenzoic acid] | –
